Laboratory results: patent US6787547B2, “Compound and method for the treatment of pain” (Astrazeneca AB, priority 1999, dated 2004)

How the values were obtained:
[1] = biological target: T1, NMDA receptor glycine site (Homo sapiens, UniProt Q05586); experiment: Test A: Inhibition of binding of [3H]-MDL105,519, human brain membranes
T1 construct: Human brain membranes were obtained from Analytical Biological Services Inc; tissue Analytical Biological Services Inc; host or cells: human brain membranes
Description: (§1) Test A: Inhibition of Binding of [^3H]-MDL105,519
[^3H]MDL105,519 (72 Ci/mmol) was purchased from Amersham. Cold MDL105,519 was purchased from Sigma/RBI. Binding assays were performed substantially in accordance with the protocol of B. M. Baron et al, J. Pharmacol. Exp. Ther. 279, 62 (1996), as follows. On the day of the experiment, brain membranes were thawed at room temperature and suspended in 50 mM tris acetate buffer, pH 7.4 (“TAB”). Seventy-five micro grams per milliliter protein (by using the BioRad dye) were used for competition binding. The experiments were carried out using 96-well plates. Membranes were incubated with 20 μL of compounds of various concentrations and 1.2 nM [^3H]MDL105,519 for 30 minutes at room temperature in a total volume of 250 μL. Non specific binding was determined by using 100 μM of unlabeled MDL105,519. The unlabeled MDL105,519 and compounds were dissolved as 12.5 mM stock solutions in DMSO. Final DMSO concentration in each well was kept below 1%, which concentration was found not to alter the binding results. […] The plates were dried overnight at room temperature and bound radioactivity was measured on a Packard TopCount after the addition of 45 μL per well of the MICROSCINT O. Potency of a compound is expressed as the Ki and results were calculated using Microsoft Excel spreadsheet and GraphPad Prizm software. […]

[2] = tested on: NMDA induced behavior/seizure; experiment: Inhibition of NMDA induced behavior/seizure after intrathecal injection; assay type: in vivo; design: unit not given here
[3] = biological target: T2, NMDA receptor glycine site (Rattus norvegicus, UniProt P35439); experiment: Test A: Inhibition of binding of [3H]-MDL105,519, rat brain membranes; settings: 1.2 nM [3H]MDL105,519
T2 construct: The rat brain membranes used in the experiments were obtained from Analytical Biological Services Inc; tissue Analytical Biological Services Inc; host or cells: rat brain (cerebral cortex and hippocampus) membranes
Description: as §1
The rat brain membranes used in the experiments were obtained from Analytical Biological Services Inc., and were prepared substantially in accordance with the method of B. M. Baron et al., J. Pharmacol. Exp. Ther. 250, 162 (1989). Briefly, fresh brain tissue including cerebral cortex and hippocampus from male Sprague Dawley rats was homogenized in 0.32 M sucrose and centrifuged at low speed to separate cellular membranes from other cellular components. The membranes were then washed 3 times using deionized water, followed by treatment with 0.04% Triton X-100. Finally, membranes were washed six times in 50 mM Tris citrate buffer, pH 7.4, and frozen at −80° C. until use.
[^3H]MDL105,519 (72 Ci/mmol) was purchased from Amersham. Cold MDL105,519 was purchased from Sigma/RBI. Binding assays were performed substantially in accordance with the protocol of B. M. Baron et al, J. Pharmacol. Exp. Ther. 279, 62 (1996), as follows. […] Non specific binding was determined by using 100 μM of unlabeled MDL105,519. […] The plates were dried overnight at room temperature and bound radioactivity was measured on a Packard TopCount after the addition of 45 μL per well of the MICROSCINT O. Potency of a compound is expressed as the Ki and results were calculated using Microsoft Excel spreadsheet and GraphPad Prizm software.

[4] = tested on: panel of more than 80 non-NMDA receptors; experiment: Binding to a panel of more than 80 non-NMDA receptors
Description: The compound of the invention was also tested for binding to a panel of more than 80 non-NMDA receptors.

[5] = tested on: formalin-induced nociceptive behaviors in rats; experiment: Test B: Formalin test (formalin-induced nociceptive behaviors); assay type: in vivo, rat
Excerpt: The Formalin test assesses the inhibitory effects of orally administered compounds on formalin-induced nociceptive behaviors in rats (D. Dubuisson, et al., Pain 4, 161-174 (1977); H. Wheeler-Aceto et al., Psychopharmacology 104, 35-44 (1991); T. J. Coderre, et al, Pain 54, 43-50 (1993)). In the test two distinctive phases of formalin-induced behaviors are detected. A first phase response, caused by acute nociception to the noxious chemical (formalin) injected into the paw, occurs between 0 to 5 minutes. A quiescent period of between 5 to 15 min post injection follows. After the quiescent period a second phase response, caused by sensitization of the central neurons in the dorsal horn, occurs after 15 minutes and lasts up to 60 minutes. Central sensitization augments a noxious afferent input causing a stronger pain barrage to be transmitted to the brain. Inhibition of the second phase response indicates a spinal mechanism of drug action.
The procedure for the formalin test is as follows: male rats are placed in a plexiglass chamber and observed for 30-45 min. to observe their baseline activity. […] The number of paw flinches (responses) during first phase (0-5 min.) and second phase (20-35 min.) are scored and recorded. Flinch response is calculated as percentage of inhibition compared with the mean score of a saline control group. […]

[6] = tested on: CCI rats, heat hyperalgesia; experiment: Test C: Neuropathic pain model (Chronic Constriction Injury), thermal hyperalgesia; assay type: in vivo, rat
Description: Test C: Neuropathic Pain Model (Chronic Constriction Injury)
Dose response studies are conducted with multiple groups of CCI rats dosed orally with either vehicle or the test compound three times daily with either vehicle or the test compound for 5 days. […] Efficacy is calculated as mean percentage decrease of hyperalgesia over 5 dosing days compared to vehicle-treated group. Compound potencies are expressed as the minimum effective dose (MED) in mg/Kg/day that yields a % decrease in hyperalgesia that is statistically significant, where the anti-hyperalgesic effect is determined as follows:
% of anti-hyperalgesia=(Mean of vehicle group−Mean of compound group)×100 (Mean of vehicle group)
Data analysis was performed by multiple means comparison (Dunnett's test).

Structure (SMILES) | Ki [1] [nM] | ED50 for inhibition of development of NMDA induced behavior/seizure [2] | Ki [3] [nM] | Interaction with non-NMDA receptors [4] | ED50 ([5]; Rattus norvegicus, po, read-out: Efficacy in formalin pain model, ED50) [mg/kg] | Minimal effective dose / dose required, CCI model of neuropathic pain [6] | MED (minimum effective dose), CCI model of neuropathic pain ([6]; oral, three times daily for 5 days) | Efficacy in formalin pain model, ED50 ([5]; rats, oral, dosed 3 hours prior to formalin, dose producing 50% inhibition of nociceptive response) | % anti-hyperalgesia in CCI model of neuropathic pain, heat hyperalgesia ([6]; oral, three times daily for 5 days, at the stated effective dose)
Cc1ccc(-n2nc(O)c3nc4cc(Cl)ccc4c(O)c3c2=O)c(Cl)c1 [compound of the invention, 7-chloro-4-hydroxy-2-(2-chloro-4-methylphenyl)-1,2,5,10-tetrahydropyridazino[4,5-b]quinoline-1,10-dione] | 50 | 110 | 56 | no significant interaction | ~100 | less than 2 mg/Kg/day | MED < 2 mg/Kg/d |  | 
NCC1(CC(=O)O)CCCCC1 [gabapentin, reference compound] |  |  |  |  |  | about 90 mg/Kg/day |  | comparable | about 46%
